Values quoted from earlier work, collected in patent US20030091531A1, “Method and composition for insect and animal control” (priority 2001, published 2003).

Columns and labels:
[1] = classified by the EPA
[2] = unstabilised active; degrades rapidly under ultraviolet light, water, oxygen and soil microbes

| SMILES | EPA carcinogen classification [1] | shelf life [2] |
| --- | --- | --- |
| CNC(=O)CSP(=S)(OC)OC [Dimethoate, dimethoate] | group 3 carcinogen |  |
| CCCCCCCCCC(C)=O [methyl nonyl ketone] |  | twelve |
